Experimental data taken from patent US20250340552A1, “COMPOUNDS, COMPOSITIONS AND METHODS OF TREATING DISORDERS” (HOTSPOT THERAPEUTICS, INC., priority 2022, published 2025).
Read-outs that look alike come from different tables or passages of the source.

Biological target: T1, Cbl-B (Homo sapiens, UniProt Q13191)
T1 construct: MSD-Based Assay for Degradation of Cbl-B in THP-1 Cells; endogenous in cells; host or cells: THP-1 (title) / Jurkat (protocol text)
Test: MSD-based assay for degradation of Cbl-B in THP-1 cells
Assay type: cell-based
How it was run: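 Reported Dmax bins are A >70%, B 50–70%, C 30–50% and D <30%, from an electrochemiluminescence (MSD) sandwich assay of Cbl-B in cell lysates. THP-1 cells were exposed to compounds for 24 hours before lysis.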

[1] = Cbl-B degradation, Jurkat cells seeded (heading: THP-1 cells), 24 hours incubation, MSD readout
[2] = Cbl-B degradation, Jurkat cells seeded (heading: THP-1 cells), 24 hours incubation, MSD readout, read-out: Dmax

T1 sequence (Q13191 whole entry): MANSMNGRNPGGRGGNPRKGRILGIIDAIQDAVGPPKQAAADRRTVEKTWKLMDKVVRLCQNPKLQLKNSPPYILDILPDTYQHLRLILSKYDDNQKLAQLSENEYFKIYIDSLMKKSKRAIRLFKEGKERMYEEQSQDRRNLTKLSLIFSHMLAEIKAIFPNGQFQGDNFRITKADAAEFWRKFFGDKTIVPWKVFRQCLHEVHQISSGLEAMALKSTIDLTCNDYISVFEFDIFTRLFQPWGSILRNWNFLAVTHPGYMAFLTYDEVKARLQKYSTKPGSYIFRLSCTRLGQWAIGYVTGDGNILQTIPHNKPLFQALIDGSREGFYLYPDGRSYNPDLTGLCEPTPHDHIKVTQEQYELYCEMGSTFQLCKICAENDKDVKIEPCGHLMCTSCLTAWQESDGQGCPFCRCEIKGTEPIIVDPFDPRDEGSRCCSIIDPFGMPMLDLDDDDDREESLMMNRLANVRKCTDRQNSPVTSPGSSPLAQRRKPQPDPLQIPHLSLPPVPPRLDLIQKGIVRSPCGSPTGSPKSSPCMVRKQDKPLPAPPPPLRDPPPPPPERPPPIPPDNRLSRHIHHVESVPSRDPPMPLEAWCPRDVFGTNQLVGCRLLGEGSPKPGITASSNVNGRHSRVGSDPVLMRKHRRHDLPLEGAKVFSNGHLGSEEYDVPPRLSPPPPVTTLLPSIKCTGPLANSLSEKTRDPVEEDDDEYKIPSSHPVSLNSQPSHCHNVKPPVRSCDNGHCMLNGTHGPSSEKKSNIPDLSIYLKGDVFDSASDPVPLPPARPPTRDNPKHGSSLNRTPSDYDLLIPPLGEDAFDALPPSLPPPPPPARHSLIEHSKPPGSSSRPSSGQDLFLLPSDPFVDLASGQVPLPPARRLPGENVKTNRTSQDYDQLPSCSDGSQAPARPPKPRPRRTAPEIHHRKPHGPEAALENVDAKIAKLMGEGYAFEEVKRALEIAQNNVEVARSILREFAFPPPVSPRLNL

Structure (SMILES)	DC50 [1]	Dmax [2]	Dmax (THP-1)
Cn1cnnc1CC1(c2cccc(-n3cc4c(C(F)(F)F)cc(CN5CCC(CCN6CCC(CC7CCN(c8ccc9c(c8)CN([C@H]8CCC(=O)NC8=O)C9=O)CC7)CC6)CC5)cn4c3=O)c2)COC1 [Compound 260]	30 to 300 nM	30 to 50%	
Cn1cnnc1CC1(c2cccc(-n3cc4c(C(F)(F)F)cc(CN5CCC[C@@H](OCCc6ccc(CN7CCN(c8ccc9c(c8)CN([C@@H]8CCC(=O)NC8=O)C9=O)CC7)cc6)C5)cn4c3=O)c2)COC1 (single isomer, unassigned) [Compound 239]	30 to 300 nM	50 to 70%	
CN(CCN(C)C(=O)c1cc(C(F)(F)F)c2cn(-c3cccc([C@H](c4nncn4C)C4CCC4)c3)c(=O)n2c1)C(=O)c1ccc(N2CCN(c3ccc4c(c3)CN([C@@H]3CCC(=O)NC3=O)C4=O)CC2)cc1 (single isomer, unassigned) [Compound 141]	> 10000 nM	< 30%	
Cn1cnnc1CC1(c2cccc(-n3cc4c(C(F)(F)F)cc(CN5CCC(CN6CCC(CN7CCN(c8ccc9c(c8)CN(C8CCC(=O)NC8=O)C9=O)CC7)CC6)CC5)cn4c3=O)c2)COC1 (centres unmarked) [Compound 42]	> 10000 nM		< 30%
Cn1cnnc1[C@@H](c1cccc(-n2cc3c(C(F)(F)F)cc(CN4CCC[C@@H](OCCN5CCC(CN6CCN(c7ccc8c(c7)CN([C@H]7CCC(=O)NC7=O)C8=O)CC6)CC5)C4)cn3c2=O)c1)C1CCC1 (single isomer, unassigned) [Compound 54]	30 to 300 nM	> 70%	
Cn1cnnc1[C@@H](c1cccc(-n2cc3c(C(F)(F)F)cc(CN4CCC(O[C@@H]5CCCN(C(=O)c6ccc(N7CCN(c8ccc9c(c8)CN([C@H]8CCC(=O)NC8=O)C9=O)CC7)cc6)C5)CC4)cn3c2=O)c1)C1CCC1 (single isomer, unassigned) [Compound 226]	30 to 300 nM	> 70%	
Cn1cnnc1[C@@H](c1cccc(-n2cc3c(C(F)(F)F)cc(CN4CCC(OCc5ccc(CC6CCN(c7ccc8c(c7)CN([C@H]7CCC(=O)NC7=O)C8=O)CC6)cc5)CC4)cn3c2=O)c1)C1CCC1 (single isomer, unassigned) [Compound 218]	< 30 nM	> 70%	
Cn1cnnc1CC1(c2cccc(-n3cc4c(C(F)(F)F)cc(CNCCOCCOCc5ccc(COCCNc6cccc7c6C(=O)N(C6CCC(=O)NC6=O)C7=O)cc5)cn4c3=O)c2)COC1 (centres unmarked) [Compound 4]	> 10000 nM	< 30%	
Cn1cnnc1[C@@H](c1cccc(-n2cc3c(C(F)(F)F)cc(CN4CCC(OCCc5ccc(CN6CCN(c7ccc8c(c7)CN([C@H]7CCC(=O)NC7=O)C8=O)CC6)cc5)CC4)cn3c2=O)c1)C1CCC1 [Compound 116]	< 30 nM	50 to 70%	
Cn1cnnc1CC1(c2cccc(-n3cc4c(C(F)(F)F)cc(CN5CCC[C@@H](OCc6ccc(CN7CCN(c8ccc9c(c8)CN(C8CCC(=O)NC8=O)C9=O)CC7)cc6)C5)cn4c3=O)c2)COC1 (some centres unmarked) [Compound 96]	30 to 300 nM	30 to 50%	
Cn1cnnc1[C@@H](c1cccc(-n2cc3c(C(F)(F)F)cc(CN4CCC(CC(=O)N5CCC(CN6CCN(c7ccc8c(c7)CN([C@@H]7CCC(=O)NC7=O)C8=O)CC6)CC5)CC4)cn3c2=O)c1)C1CCC1 (single isomer, unassigned) [Compound 111]	30 to 300 nM	50 to 70%	
Cn1cnnc1[C@@H](c1cccc(N2Cc3c(cc(CN4CCC[C@H](OCc5ccc(CC6CCN(c7ccc8c(c7)CN([C@H]7CCC(=O)NC7=O)C8=O)CC6)cc5)C4)cc3C(F)(F)F)C2=O)c1)C1CCC1 [Compound 190]	300 to 1000 nM	30 to 50%	
Cn1cnnc1[C@@H](c1cccc(-n2cc3c(C(F)(F)F)cc(CN4CCC[C@H](COCc5ccc(CN6CCN(c7ccc8c(c7)CN([C@@H]7CCC(=O)NC7=O)C8=O)CC6)cc5)C4)cn3c2=O)c1)C1CCC1 [Compound 235]			30 to 50%
Cn1cnnc1CC1(c2cccc(-n3cc4c(C(F)(F)F)cc(CN5CCN(CCc6ccc(N7CCN(c8ccc9c(c8)CN([C@@H]8CCC(=O)NC8=O)C9=O)CC7)cc6)CC5)cn4c3=O)c2)COC1 [Compound 203]	< 30 nM	> 70%	
Cn1cnnc1[C@@H](c1cccc(-n2cc3c(C(F)(F)F)cc(CN4CCC(C5CCN(C(=O)c6ccc(N7CCN(c8ccc9c(c8)CN([C@@H]8CCC(=O)NC8=O)C9=O)CC7)cc6)CC5)CC4)cn3c2=O)c1)C1CCC1 (single isomer, unassigned) [Compound 161]	300 to 1000 nM	< 30%	
Cn1cnnc1[C@@H](c1cccc(-n2cc3c(C(F)(F)F)cc(CN4CCC(CC(=O)N5CCC(Cc6ccc(-c7ccc8c(c7)CN([C@@H]7CCC(=O)NC7=O)C8=O)cc6)CC5)CC4)cn3c2=O)c1)C1CCC1 [Compound 179]	300 to 1000 nM		30 to 50%
Cn1cnnc1CC1(c2cccc(-n3cc4c(C(F)(F)F)cc(-c5nccn5CCOCCN5CCC(CN6CCN(c7ccc8c(c7)CN([C@H]7CCC(=O)NC7=O)C8=O)CC6)CC5)cn4c3=O)c2)COC1 (single isomer, unassigned) [Compound 100]	> 10000 nM	< 30%	

Structure (SMILES)	DC50 [1]	Dmax [2]	Dmax (THP-1)
CN(CCOC1CCN(Cc2cc(C(F)(F)F)c3cn(-c4cccc([C@H](c5nncn5C)C5CCC5)c4)c(=O)n3c2)CC1)C(=O)c1ccc(N2CCC(c3ccc4c(c3)CN([C@H]3CCC(=O)NC3=O)C4=O)CC2)cc1 [Compound 152]	< 30 nM	> 70%	
Cn1cnnc1[C@@H](c1cccc(-n2cc3c(C(F)(F)F)cc(CN4CCC(OC(=O)N5CCC(CC6CCN(c7ccc8c(c7)CN([C@H]7CCC(=O)NC7=O)C8=O)CC6)CC5)CC4)cn3c2=O)c1)C1CCC1 (single isomer, unassigned) [Compound 254]	< 30 nM	> 70%	
Cn1cnnc1[C@@H](c1cccc(-n2cc3c(C(F)(F)F)cc(CN4CCC(CN5CCN(c6ccc7c(c6)CN([C@H]6CCC(=O)NC6=O)C7=O)CC5)CC4)cn3c2=O)c1)C1CCC1 (single isomer, unassigned) [Compound 86]	1000 to 10000 nM	30 to 50%	
CN(CCOC1CCN(Cc2cc(C(F)(F)F)c3cn(-c4cccc([C@H](c5nncn5C)C5CCC5)c4)c(=O)n3c2)CC1)C(=O)c1ccc(N2C3CC2CN(c2ccc4c(c2)CN([C@@H]2CCC(=O)NC2=O)C4=O)C3)cc1 (single isomer, unassigned) [Compound 145]	> 10000 nM		30 to 50%
Cn1cnnc1[C@@H](c1cccc(N2Cc3c(cc(CN4CCC(OCCN5CCC(CN6CCN(c7ccc8c(c7)CN([C@H]7CCC(=O)NC7=O)C8=O)CC6)CC5)CC4)cc3C(F)(F)F)C2=O)c1)C1CCC1 [Compound 66]	30 to 300 nM		50 to 70%
Cn1cnnc1[C@@H](c1cccc(-n2cc3c(C(F)(F)F)cc(CN4CCC(N5CCN(c6ccc7c(c6)CN([C@@H]6CCC(=O)NC6=O)C7=O)CC5)CC4)cn3c2=O)c1)C1CCC1 (single isomer, unassigned) [Compound 40]	1000 to 10000 nM		< 30%
Cn1cnnc1CC1(c2cccc(-n3cc4c(C(F)(F)F)cc(CN5CCC(CC(=O)N6CCC(CN7CCN(c8ccc9c(c8)CN([C@@H]8CCC(=O)NC8=O)C9=O)CC7)CC6)CC5)cn4c3=O)c2)COC1 [Compound 255]	30 to 300 nM	> 70%	
Cn1cnnc1CC1(c2cccc(-n3cc4c(C(F)(F)F)cc(CN5CCC(OCc6ccc(C7CCN(c8ccc9c(c8)CN([C@H]8CCC(=O)NC8=O)C9=O)CC7)cc6)CC5)cn4c3=O)c2)COC1 (single isomer, unassigned) [Compound 206]	30 to 300 nM	50 to 70%	
Cn1cnnc1[C@@H](c1cccc(-n2cc3c(C(F)(F)F)cc(CN4CCC(O[C@H]5CCCN(C(=O)c6ccc(N7CCN(c8ccc9c(c8)CN([C@@H]8CCC(=O)NC8=O)C9=O)CC7)cc6)C5)CC4)cn3c2=O)c1)C1CCC1 (single isomer, unassigned) [Compound 247]	300 to 1000 nM	30 to 50%	
Cn1cnnc1[C@@H](c1cccc(-n2cc3c(C(F)(F)F)cc(CN4CCC[C@H](OCCOCc5ccc(COCCNc6cccc7c6C(=O)N(C6CCC(=O)NC6=O)C7=O)cc5)C4)cn3c2=O)c1)C1CCC1 (some centres unmarked) [Compound 17]	30 to 300 nM	50 to 70%	
Cn1cnnc1CC1(c2cccc(-n3cc4c(C(F)(F)F)cc(CN5CC(OCCN6CCC(CN7CCN(c8ccc9c(c8)CN(C8CCC(=O)NC8=O)C9=O)CC7)CC6)C5)cn4c3=O)c2)COC1 (centres unmarked) [Compound 113]	> 10000 nM		< 30%
Cn1cnnc1[C@@H](c1cccc(N2Cc3c(cc(CN4CCC(OCCOCc5ccc(COCCNc6cccc7c6C(=O)N(C6CCC(=O)NC6=O)C7=O)cc5)CC4)cc3C(F)(F)F)C2=O)c1)C1CCC1 (some centres unmarked) [Compound 22]	30 to 300 nM	> 70%	
CN(CC1CCN(Cc2cc(C(F)(F)F)c3cn(-c4cccc([C@H](c5nncn5C)C5CCC5)c4)c(=O)n3c2)CC1)C(=O)c1ccc(N2CCN(c3ccc4c(c3)CN([C@@H]3CCC(=O)NC3=O)C4=O)CC2)cc1 (single isomer, unassigned) [Compound 117]	1000 to 10000 nM	30 to 50%	
Cn1cnnc1[C@@H](c1cccc(-n2cc3c(C(F)(F)F)cc(CN4CCC[C@@H](OCCOCc5ccc(COCCNc6cccc7c6C(=O)N(C6CCC(=O)NC6=O)C7=O)cc5)CC4)cn3c2=O)c1)C1CCC1 (some centres unmarked) [Compound 31]	30 to 300 nM	50 to 70%	
Cn1cnnc1CC1(c2cccc(-n3cc4c(C(F)(F)F)cc(CN5CCC[C@@H](OC6CCN(C(=O)c7ccc(N8CCN(c9ccc%10c(c9)CN([C@@H]9CCC(=O)NC9=O)C%10=O)CC8)cc7)CC6)C5)cn4c3=O)c2)COC1 (single isomer, unassigned) [Compound 263]	< 30 nM	> 70%	
Cn1cnnc1[C@H](c1cccc(-n2cc3c(C(F)(F)F)cc(CN4CCC(OCCOCc5ccc(COCCNc6cccc7c6C(=O)N(C6CCC(=O)NC6=O)C7=O)cc5)CC4)cn3c2=O)c1)C1CCC1 (single isomer, unassigned) [Compound 6]	30 to 300 nM	50 to 70%	
